According to patent US6624202B2, “Inhibitors of copper-containing amine oxidases” (priority 2000, dated 2003):
pIC50: −log10 of the molar value. Where a name gives a salt, the structure may show the parent alone. Read-outs that look alike come from different tables or passages of the source.

Legend:
[1] = target: T1, Recombinant human VAP-1 SSAO (Homo sapiens, UniProt Q16853); assay: In vitro inhibition of VAP-1 SSAO activity (coupled colourimetric method); type: biochemical; conditions: for pIC50: 1 mM benzylamine, 1 h at 37° C.; for Selectivity for VAP-1 SSAO over MAO: ratio of total rat MAO IC50 to human VAP-1 SSAO IC50
T1 sequence (Q16853 1-763): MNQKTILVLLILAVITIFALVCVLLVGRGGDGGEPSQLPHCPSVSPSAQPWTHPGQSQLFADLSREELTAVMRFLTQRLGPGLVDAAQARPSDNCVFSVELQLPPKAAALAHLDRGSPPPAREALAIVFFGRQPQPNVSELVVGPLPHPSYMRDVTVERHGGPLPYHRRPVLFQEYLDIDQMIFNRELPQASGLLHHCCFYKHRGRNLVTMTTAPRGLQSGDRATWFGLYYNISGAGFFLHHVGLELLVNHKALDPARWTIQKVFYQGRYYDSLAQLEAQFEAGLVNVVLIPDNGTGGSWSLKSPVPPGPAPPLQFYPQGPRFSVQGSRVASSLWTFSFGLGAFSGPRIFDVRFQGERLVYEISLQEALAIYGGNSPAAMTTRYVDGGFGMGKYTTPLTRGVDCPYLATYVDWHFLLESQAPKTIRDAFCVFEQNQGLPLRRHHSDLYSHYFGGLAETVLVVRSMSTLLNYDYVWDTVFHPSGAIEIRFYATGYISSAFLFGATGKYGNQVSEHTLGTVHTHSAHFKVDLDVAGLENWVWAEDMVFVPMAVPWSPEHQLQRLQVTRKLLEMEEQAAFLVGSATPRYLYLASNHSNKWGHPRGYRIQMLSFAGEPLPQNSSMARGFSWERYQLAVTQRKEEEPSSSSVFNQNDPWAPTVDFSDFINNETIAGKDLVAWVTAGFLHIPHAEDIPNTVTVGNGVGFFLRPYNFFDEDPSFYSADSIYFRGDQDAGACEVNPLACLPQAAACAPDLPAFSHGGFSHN
Experimental: VAP-1 SSAO activity was measured using the coupled colourimetric method essentially as described for monoamine oxidase and related enzymes (Holt, A., et al., Anal. Biochem. 244:384-392 (1997)). Recombinant human VAP-1 SSAO expressed in Chinese Hamster Ovary (CHO) cells was used as a source of VAP-1 SSAO for activity measurements. […] These cells and their culture have previously been described (Smith, D. J., et al., J. Exp. Med. 188:17-27 (1998)). A cell lysate was prepared by suspending approximately 3.6×10^8 cells in 25 ml lysis buffer (150 mM NaCl, 10 mM Tris-Base pH 7.2, 1.5 mM MgCl2, 1% NP40) and incubating at 4° C. overnight on a rotating table. The lysate was clarified by centrifugation at 18000 g for 5 min at room temperature and the supernatant used directly in the assay. The VAP-1 SSAO assay was performed in 96 well microtitre plates as follows. To each well was added a predetermined amount of inhibitor if required. […] Controls lacked inhibitor. The inhibitor was in a total volume of 20 μl in water. The following reagents were then added. 0.2 M potassium phosphate buffer pH 7.6 to a total reaction volume of 200 μl, 45 μl of freshly made chromogenic solution containing 1 mM 2,4-dichlorophenol, 500 μM 4-aminoantipyrine and 4 U/ml horseradish peroxidase and an amount of CHO cell lysate containing VAP-1 SSAO that caused a change of 0.6 A490 per h. […] The plates were incubated for 30 min at 37° C. and the background absorbance measured at 490 nm using a Wallac Victor II multilabel counter. To initiate the enzyme reaction 20 μl 10 mM benzylamine (final concentration=1 mM) was added and the plate incubated for 1 h at 37° C. The increase in absorbance, reflecting VAP-1 SSAO activity, was measured at 490 nm. Inhibition was presented as percent inhibition compared to control after correcting for background absorbance and IC50 values calculated using GraphPad Prism.

[2] = lysate of CHO cells expressing recombinant human VAP-1 SSAO, read-out: VAP-1 SSAO inhibitory activity IC50

SMILES	melting point	pIC50 ([1]; VAP-1 SSAO inhibitory activity IC50, lysate of CHO cells expressing recombinant human VAP-1 SSAO)	Selectivity for VAP-1 SSAO over MAO [1]	pIC50 [1, 2]
C[C@@H]([C@H](O)c1ccccc1)N(C)N (as salt: maleate) [Compound 1, (1R,2S)-2-(1-Methylhydrazino)-1-phenyl-1-propanol hydrogenmaleate]	111 to 113 °C			
C[C@H](C(O)c1ccccc1)N(C)N (single isomer, unassigned) [Compound 48]	112 to 114 °C	6.55	110	
NNCC(O)c1ccccc1 (single isomer, unassigned) [Compound 49]	99 to 104 °C		70	6.85
NNCC(O)c1ccccc1 (single isomer, unassigned) [Compound 50]	98 to 103 °C		283	7.46
